Experimental data: ChEMBL document CHEMBL1157538, “Discovery of a potent, selective, and orally bioavailable c-Met inhibitor: 1-(2-hydroxy-2-methylpropyl)-N-(5-(7-methoxyquinolin-4-yloxy)pyridin-2-yl)-5-methyl-3-oxo-2-phenyl-2,3-dihydro-1H-pyrazole-4-carboxamide (AMG 458)” (J Med Chem, 2008)
pIC50, pKi: −log10 of the molar value.

Key:
[1] = target: T1, Hepatocyte growth factor receptor (Homo sapiens, UniProt P08581); experiment: Inhibition of HGF-mediated c-Met phosphorylation in human PC3 cells; format: cell-based, PC-3
[2] = target: T1, Hepatocyte growth factor receptor; experiment: Inhibition of c-Met phosphorylation by HTRF assay
[3] = Intrinsic clearance in BALB/c mouse liver microsome; format: ADME; details: liver microsomes
[4] = Apparent permeability across pig LLC-PK1 cells; format: ADME, cell-based, Sus scrofa; details: read-out: permeability
[5] = target: T2, Receptor-type tyrosine-protein kinase FLT3 (Homo sapiens, UniProt P36888); experiment: Inhibition of FLT3
T2 sequence (P36888 whole entry): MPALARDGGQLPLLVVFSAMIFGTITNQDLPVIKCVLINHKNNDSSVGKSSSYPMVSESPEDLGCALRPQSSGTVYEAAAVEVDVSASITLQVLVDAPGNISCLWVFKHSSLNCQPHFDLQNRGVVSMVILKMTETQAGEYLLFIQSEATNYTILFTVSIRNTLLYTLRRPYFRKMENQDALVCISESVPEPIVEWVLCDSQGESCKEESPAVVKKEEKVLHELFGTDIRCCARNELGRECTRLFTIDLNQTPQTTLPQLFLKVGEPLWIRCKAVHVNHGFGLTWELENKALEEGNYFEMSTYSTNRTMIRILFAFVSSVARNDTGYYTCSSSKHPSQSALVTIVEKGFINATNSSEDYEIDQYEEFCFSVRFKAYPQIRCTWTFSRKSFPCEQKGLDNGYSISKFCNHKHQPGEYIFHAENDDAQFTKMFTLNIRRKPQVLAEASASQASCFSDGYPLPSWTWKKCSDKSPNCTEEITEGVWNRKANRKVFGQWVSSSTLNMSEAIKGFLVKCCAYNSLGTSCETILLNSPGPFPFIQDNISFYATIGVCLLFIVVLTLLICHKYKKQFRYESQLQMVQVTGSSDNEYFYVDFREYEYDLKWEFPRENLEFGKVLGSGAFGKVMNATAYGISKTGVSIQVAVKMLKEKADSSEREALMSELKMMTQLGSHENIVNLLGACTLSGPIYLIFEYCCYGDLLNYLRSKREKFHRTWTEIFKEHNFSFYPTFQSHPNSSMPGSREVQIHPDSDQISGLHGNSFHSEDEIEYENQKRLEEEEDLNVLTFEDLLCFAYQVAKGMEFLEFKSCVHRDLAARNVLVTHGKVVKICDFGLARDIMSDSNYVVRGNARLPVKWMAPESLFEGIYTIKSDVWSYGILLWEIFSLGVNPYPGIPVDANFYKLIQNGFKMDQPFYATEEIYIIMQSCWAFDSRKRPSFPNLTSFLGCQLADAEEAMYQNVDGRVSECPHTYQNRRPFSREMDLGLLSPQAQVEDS

[6] = target: Hepatocyte growth factor receptor (Homo sapiens, UniProt P08581, H1094R); experiment: Inhibition c-Met H1094R mutant by HTRF assay
[7] = Half life in cynomolgus monkey at 1 mg/kg, iv or 10 mg/kg, po; format: ADME, organism-based, Macaca fascicularis; details: in vivo
[8] = Half life in Beagle dog at 1 mg/kg, iv or 10 mg/kg, po; format: ADME, organism-based, Canis lupus familiaris; details: in vivo
[9] = target: T3, Tyrosine-protein kinase ITK/TSK (Homo sapiens, UniProt Q08881); experiment: Inhibition of ITK
T3 sequence (Q08881 whole entry): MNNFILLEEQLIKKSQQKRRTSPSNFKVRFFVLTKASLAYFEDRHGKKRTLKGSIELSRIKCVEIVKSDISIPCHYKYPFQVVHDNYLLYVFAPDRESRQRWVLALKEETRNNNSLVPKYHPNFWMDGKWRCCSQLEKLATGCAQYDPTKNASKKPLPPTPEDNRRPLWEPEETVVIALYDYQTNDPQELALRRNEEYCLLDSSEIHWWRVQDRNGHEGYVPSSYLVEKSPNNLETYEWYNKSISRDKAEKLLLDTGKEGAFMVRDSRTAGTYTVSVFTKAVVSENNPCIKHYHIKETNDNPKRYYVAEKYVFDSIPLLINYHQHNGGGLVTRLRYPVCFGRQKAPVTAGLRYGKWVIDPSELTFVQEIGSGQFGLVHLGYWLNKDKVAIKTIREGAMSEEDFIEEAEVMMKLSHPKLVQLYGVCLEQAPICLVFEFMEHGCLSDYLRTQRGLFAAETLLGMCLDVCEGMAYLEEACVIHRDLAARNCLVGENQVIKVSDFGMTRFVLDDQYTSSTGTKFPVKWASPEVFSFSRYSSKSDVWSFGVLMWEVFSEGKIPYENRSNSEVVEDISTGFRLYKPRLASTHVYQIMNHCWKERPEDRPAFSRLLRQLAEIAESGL

[10] = test system: Mus musculus; experiment: Toxicity in human U87MG cells xenografted CD1 NU/NU mouse assessed as effect on body weight at 30 mg/kg and 100 mg/kg, qd for 14 days; format: organism-based, U-87MG ATCC; details: in vivo, 336 h
[11] = Clearance in BALB/c mouse at 1 mg/kg, iv or 10 mg/kg, po; format: ADME, organism-based; details: in vivo
[12] = Intrinsic clearance in human liver microsome; format: ADME; details: liver microsomes
[13] = test system: NIH3T3; experiment: Antitumor activity in TPR-Met expressing […] NIH3T3 cells xenografted in po dosed mouse assessed as tumor growth inhibition after 24 hrs; format: functional
[14] = target: Hepatocyte growth factor receptor (Homo sapiens, UniProt P08581, Y1230H); experiment: Inhibition c-Met Y1230H mutant by HTRF assay
[15] = Terminal half life in BALB/c mouse; format: ADME, organism-based; details: in vivo, read-out: beta t1/2
[16] = target: T1, Hepatocyte growth factor receptor; experiment: Inhibition of human c-Met by HTRF assay
[17] = target: Macrophage colony-stimulating factor 1 receptor (Homo sapiens, UniProt P07333)
[18] = test system: Mus musculus; experiment: Inhibition of HGF-mediated c-Met phosphorylation in po dosed BALB/c mouse liver after 6 hrs; format: functional
[19] = target: Tyrosine-protein kinase Fgr (Homo sapiens, UniProt P09769); experiment: Inhibition of FGR
[20] = Oral bioavailability in Beagle dog at 10 mg/kg; format: ADME, organism-based, Canis lupus familiaris; details: in vivo
[21] = Volume of distribution at steady state in BALB/c mouse at 1 mg/kg, iv or 10 mg/kg, po; format: ADME, organism-based; details: in vivo, read-out: Vdss
[22] = Drug level in po dosed BALB/c mouse plasma after 6 hrs; format: ADME, organism-based
[23] = Clearance in Sprague-Dawley rat at 1 mg/kg, iv or 10 mg/kg, po; format: ADME, organism-based; details: in vivo
[24] = Terminal half life in Sprague-Dawley rat; format: ADME, organism-based; details: in vivo, read-out: beta t1/2
[25] = target: T4, Hepatocyte growth factor receptor (Mus musculus, UniProt P16056); experiment: Inhibition of HGF-mediated c-Met phosphorylation in mouse CT26 cells; format: cell-based
[26] = Intrinsic clearance in Sprague-Dawley rat liver microsome; format: ADME; details: liver microsomes
[27] = Inhibition of PDGF
[28] = Clearance in Beagle dog at 1 mg/kg, iv or 10 mg/kg, po; format: ADME, organism-based, Canis lupus familiaris; details: in vivo
[29] = Inhibition of RON
[30] = target: Tyrosine-protein kinase Blk (Homo sapiens, UniProt P51451); experiment: Inhibition of BLK
[31] = Oral bioavailability in cynomolgus monkey at 10 mg/kg; format: ADME, organism-based, Macaca fascicularis; details: in vivo
[32] = Volume of distribution at steady state in Sprague-Dawley rat at 1 mg/kg, iv or 10 mg/kg, po; format: ADME, organism-based; details: in vivo
[33] = Half life in BALB/c mouse at 1 mg/kg, iv or 10 mg/kg, po; format: ADME, organism-based; details: in vivo
[34] = target: Hepatocyte growth factor receptor (Homo sapiens, UniProt P08581, M1250T); experiment: Inhibition c-Met M1250T mutant by HTRF assay
[35] = Permeability from apical to basolateral side of human Caco-2 cell monolayer; format: ADME, cell-based; details: read-out: permeability
[36] = target: T5, Cytoplasmic tyrosine-protein kinase BMX (Homo sapiens, UniProt P51813); experiment: Inhibition of BMX
T5 sequence (P51813 whole entry): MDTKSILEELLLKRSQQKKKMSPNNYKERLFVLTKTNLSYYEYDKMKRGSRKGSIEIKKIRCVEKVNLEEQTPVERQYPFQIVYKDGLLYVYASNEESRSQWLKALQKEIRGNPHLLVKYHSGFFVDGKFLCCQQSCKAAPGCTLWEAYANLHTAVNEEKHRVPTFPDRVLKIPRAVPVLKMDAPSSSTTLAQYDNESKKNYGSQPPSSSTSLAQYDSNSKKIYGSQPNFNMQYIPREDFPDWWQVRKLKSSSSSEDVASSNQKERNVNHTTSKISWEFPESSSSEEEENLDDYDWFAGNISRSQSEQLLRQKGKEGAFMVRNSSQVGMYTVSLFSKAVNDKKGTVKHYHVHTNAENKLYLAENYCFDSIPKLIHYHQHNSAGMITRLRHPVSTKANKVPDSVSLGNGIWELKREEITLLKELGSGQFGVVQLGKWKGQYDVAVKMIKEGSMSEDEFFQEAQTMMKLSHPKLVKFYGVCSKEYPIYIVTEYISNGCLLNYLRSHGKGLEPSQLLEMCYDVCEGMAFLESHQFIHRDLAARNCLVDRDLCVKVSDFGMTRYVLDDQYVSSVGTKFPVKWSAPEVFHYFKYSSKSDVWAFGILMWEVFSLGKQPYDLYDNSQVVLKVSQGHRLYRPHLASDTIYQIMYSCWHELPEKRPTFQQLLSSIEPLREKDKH

[37] = Inhibition of Aurora1
[38] = Clearance in cynomolgus monkey at 1 mg/kg, iv or 10 mg/kg, po; format: ADME, organism-based, Macaca fascicularis; details: in vivo
[39] = test system: Mus musculus; experiment: Toxicity in human U87MG cells xenografted CD1 NU/NU mouse assessed as effect on body weight at 30 mg/kg BID for 14 days; format: organism-based, U-87MG ATCC; design: dose 30 mg/kg; details: in vivo, 336 h
[40] = Volume of distribution at steady state in Beagle dog at 1 mg/kg, iv or 10 mg/kg, po; format: ADME, organism-based, Canis lupus familiaris; details: in vivo, read-out: Vdss
[41] = Oral bioavailability in Sprague-Dawley rat at 10 mg/kg; format: ADME, organism-based; details: in vivo
[42] = target: Tyrosine-protein kinase Fes/Fps (Homo sapiens, UniProt P07332); experiment: Inhibition of FES
[43] = Intrinsic clearance in cynomolgus monkey liver microsome; format: ADME, Macaca fascicularis; details: liver microsomes
[44] = target: Tyrosine-protein kinase Lyn (Homo sapiens, UniProt P07948); experiment: Inhibition of Lyn
[45] = target: Tyrosine-protein kinase CSK (Homo sapiens, UniProt P41240); experiment: Inhibition of CSK
[46] = Antitumor activity in human U87MG cells xenografted orally dosed CD1 NU/NU mouse assessed as tumor growth inhibition after 14 days; format: functional, U-87MG ATCC; details: U-87 MG, po, 336 h
[47] = Intrinsic clearance in Beagle dog liver microsome; format: ADME, Canis lupus familiaris; details: liver microsomes
[48] = Oral bioavailability in BALB/c mouse at 10 mg/kg; format: ADME, organism-based; details: in vivo
[49] = target: Hepatocyte growth factor receptor (Homo sapiens, UniProt P08581, D1228H); experiment: Inhibition c-Met D1228H mutant by HTRF assay
[50] = Inhibition c-Met […] mutant
[51] = target: T4, Hepatocyte growth factor receptor; experiment: Inhibition of mouse c-Met by HTRF assay
[52] = Half life in Sprague-Dawley rat at 1 mg/kg, iv or 10 mg/kg, po; format: ADME, organism-based; details: in vivo
[53] = Volume of distribution at steady state in cynomolgus monkey at 1 mg/kg, iv or 10 mg/kg, po; format: ADME, organism-based, Macaca fascicularis; details: in vivo, read-out: Vdss

COc1ccc2c(Oc3ccc(NC(=O)c4c(C)n(CC(C)(C)O)n(-c5ccccc5)c4=O)cc3F)ccnc2c1
pIC50 [1]: 7.30
pKi [2]: 8.57

COc1ccc2c(Oc3ccc(NC(=O)c4c(C)n(CC(C)(C)O)n(-c5ccccc5)c4=O)nc3)ccnc2c1
microsomal CLint [3]: < 5 µL/min/mg
Papp [4]: 27 ×10⁻⁶ cm/s
pIC50 [5]: 6.41
pKi [6]: 9.30
half-life [7]: 5.7 h
half-life [8]: 2.8 h
pIC50 [9]: 7.21
Activity [10]: Non-toxic
clearance [11]: 2.67 mL/min/kg
microsomal CLint [12]: 18 µL/min/mg
ED50 [13]: 12 mg/kg
ED90 [13]: 34 mg/kg
pKi [14]: 8.35
half-life [15]: < 2 h
pKi [16]: 8.92
pIC50 [17]: 6.62
ED90 [18]: 30 mg/kg
pIC50 [19]: 6.48
bioavailability [20]: 100%
Vd [21]: 0.31 L/kg
pIC50 [1]: 7.22
concentration at 6 h [22]: 15 µM
clearance [23]: 12.2 mL/min/kg
half-life [24]: < 2 h
pIC50 [25]: 6.92
microsomal CLint [26]: 62 µL/min/mg
pIC50 [27]: 6.92
clearance [28]: 5.67 mL/min/kg
pIC50 [29]: 8.10
pIC50 [30]: 6.28
bioavailability [31]: 78%
Vd [32]: 0.62 L/kg
half-life [33]: 1.3 h
pKi [34]: 8.39
Papp A→B [35]: 32 ×10⁻⁶ cm/s
pIC50 [36]: 6.44
pIC50 [37]: 6.55
clearance [38]: 1.67 mL/min/kg
Activity [39]: Non-toxic
Vd [40]: 0.75 L/kg
bioavailability [41]: 100%
pIC50 [42]: 6.15
microsomal CLint [43]: 8 µL/min/mg
pIC50 [44]: 6.30
pIC50 [45]: 6.78
ED50 [46]: 16 mg/kg
ED90 [46]: 59 mg/kg
microsomal CLint [47]: 8 µL/min/mg
bioavailability [48]: 100%
pKi [49]: 8.66
pKi [50]: 8.96
pKi [51]: 8.70
half-life [52]: 1 h
Vd [53]: 0.56 L/kg
